Results from ChEMBL document CHEMBL1201862, “PubChem BioAssay data set” (2004).
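1) Cells in 96-well plates. 2) Compound, 48 h, 5 concentrations. 3) Linear interpolation between surrounding doses. 4) Unreached endpoint = highest concentration. GI50 = concentration required for 50% inhibition of growth.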 The source made the active and inactive calls. No stated cut-off is given here; in the data, active = GI50 up to about 1.1 µM and inactive = higher.

Legend:
Test in all cases: growth of human tumour cells (NCI), 48 h
U-251 = system: U-251
Malme-3M = system: Malme-3M
NCI-H522 = system: NCI-H522
HT-29 = system: HT-29
A549 = system: A549
SF-268 = system: SF-268
MDA-MB-231 = system: MDA-MB-231
KM12 = system: KM12
RPMI-8226 = system: RPMI-8226
K562 = system: K562
SK-OV-3 = system: SK-OV-3
LOX IMVI = system: LOX IMVI
MDA-MB-435 = system: MDA-MB-435
CCRF-CEM = system: CCRF-CEM
MOLT-4 = system: MOLT-4
SF-539 = system: SF-539
SK-MEL-5 = system: SK-MEL-5
MCF7 = system: MCF7
A498 = system: A498
SK-MEL-2 = system: SK-MEL-2

| SMILES | GI50 (U-251) | GI50 (Malme-3M) | GI50 (NCI-H522) | GI50 (HT-29) | GI50 (A549) | GI50 (SF-268) | GI50 (MDA-MB-231) | GI50 (KM12) | GI50 (RPMI-8226) | GI50 (K562) | GI50 (SK-OV-3) | GI50 (LOX IMVI) | GI50 (MDA-MB-435) | GI50 (CCRF-CEM) | GI50 (MOLT-4) | GI50 (SF-539) | GI50 (SK-MEL-5) | GI50 (MCF7) | GI50 (A498) | GI50 (SK-MEL-2) |
| --- | --- | --- | --- | --- | --- | --- | --- | --- | --- | --- | --- | --- | --- | --- | --- | --- | --- | --- | --- | --- |
| Cc1c2c(nc3ccccc13)C(=O)c1cccnc1C2=O | 10.8 µM (inactive) | 1.29 µM (inactive) | 6.87 µM (inactive) | 9.84 µM (inactive) | 1.66 µM (inactive) | 25.2 µM (inactive) | 8.34 µM (inactive) | 14.9 µM (inactive) | 17 µM (inactive) | 20 µM (inactive) | > 100 µM (inactive) | 10.7 µM (inactive) | 1.79 µM (inactive) | 22.4 µM (inactive) | 9.71 µM (inactive) | 5.41 µM (inactive) | 0.381 µM (active) | 4.89 µM (inactive) | – | – |
| CC(C)=Cc1cc2c(cc1O)CCC1C2CC[C@@]2(C)C1CC[C@@H]2O (stereo partly drawn) | 10.4 µM (inactive) | 10.4 µM (inactive) | 5.35 µM (inactive) | 14.9 µM (inactive) | 12.5 µM (inactive) | 16.7 µM (inactive) | 16.3 µM (inactive) | 11.8 µM (inactive) | 5.14 µM (inactive) | 3.75 µM (inactive) | 14.9 µM (inactive) | 3.97 µM (inactive) | – | 12.9 µM (inactive) | 6.41 µM (inactive) | – | 6.24 µM (inactive) | 14.4 µM (inactive) | 16.4 µM (inactive) | 14.8 µM (inactive) |
| COc1ccc(C(O)(c2ccccc2)c2nccc3ccccc23)cc1 (stereo not drawn) | 11.7 µM (inactive) | 0.0966 µM (active) | 6.35 µM (inactive) | 7.46 µM (inactive) | 7.19 µM (inactive) | 12.4 µM (inactive) | 7.31 µM (inactive) | 5.71 µM (inactive) | 7.36 µM (inactive) | 2.7 µM (inactive) | 4.06 µM (inactive) | 5.18 µM (inactive) | 3.6 µM (inactive) | 2.01 µM (inactive) | 2.29 µM (inactive) | – | 3.38 µM (inactive) | 4.32 µM (inactive) | – | – |
| N=C1N(/N=C/c2ccccn2)/C(=N\c2ccccc2)C(=S)N1c1ccccc1 | 8.18 µM (inactive) | 10.9 µM (inactive) | 1.92 µM (inactive) | 2.97 µM (inactive) | 5.51 µM (inactive) | 5.12 µM (inactive) | 6.7 µM (inactive) | 4.01 µM (inactive) | > 100 µM (inactive) | 3.33 µM (inactive) | 16.6 µM (inactive) | 2.22 µM (inactive) | 5.41 µM (inactive) | 2.05 µM (inactive) | > 100 µM (inactive) | 3.77 µM (inactive) | 4.48 µM (inactive) | – | 19.4 µM (inactive) | 2.14 µM (inactive) |
| CC(=O)OC12OC(C)(C3C(=O)N(c4ccccc4)C(=O)C31)N(c1ccccc1)C2=O (stereo not drawn) | > 100 µM (inactive) | > 100 µM (inactive) | > 100 µM (inactive) | > 100 µM (inactive) | > 100 µM (inactive) | > 100 µM (inactive) | > 100 µM (inactive) | > 100 µM (inactive) | – | > 100 µM (inactive) | > 100 µM (inactive) | > 100 µM (inactive) | > 100 µM (inactive) | > 100 µM (inactive) | > 100 µM (inactive) | > 100 µM (inactive) | > 100 µM (inactive) | > 100 µM (inactive) | – | > 100 µM (inactive) |
| COc1c(C(=O)NCCN(CCNC(=O)c2cccc(-c3cccc(C(=O)N(C)C)c3OC)c2OC)CCNC(=O)c2cccc(-c3cccc(C(=O)N(C)C)c3OC)c2OC)cccc1-c1cccc(C(=O)N(C)C)c1OC | 34 µM (inactive) | 18.7 µM (inactive) | 21.6 µM (inactive) | 33.1 µM (inactive) | > 100 µM (inactive) | 15.3 µM (inactive) | 32.4 µM (inactive) | 17.3 µM (inactive) | 25.9 µM (inactive) | 23.8 µM (inactive) | 48.1 µM (inactive) | 18.1 µM (inactive) | 20.9 µM (inactive) | 31.3 µM (inactive) | 24.7 µM (inactive) | 18.1 µM (inactive) | 30.5 µM (inactive) | 18.8 µM (inactive) | – | – |
